From patent US20090253616A1, “COMBINATION THERAPY FOR THE TREATMENT OF CANCER” (ASTRAZENECA AB, priority 2006, published 2009)

Tested on: MCF7 ADR cells
Experiment: Activity in MDR cells: inhibition of phosphohistone H3 (phH3) in MCF7 ADR cells, with and without UIC2 mAb
Format: cell-based
Experimental: MCF7 ADR cells are known to highly express Pgp and other efflux transporters.
On day 1; 8×10^4 MCF7 ADR cells/ml were plated into a 96 well plate in 100 μl of media (DMEM, 10% FCS, 1% glutamine) and left to adhere at 37° C. overnight.
After 24 hours the cells were examined using the light microscope, and any cellular change in morphology was noted. The cells were then fixed with 100 μl of 3.7% formaldehyde for 30 minutes at room temperature and then washed in PBS using an automated plate washer. 1001 PBS 0.5% triton X-100 was then added for 5 minutes on a shaker. The plate was washed in 100 μl PBS and 50 μl of primary antibody (1:1000 rabbit anti-phosphohistone H3 in PBS 1% BSA 0.5% tween) was added. The plate was left for at least 1 hour at room temperature, on a shaker, after which the antibody was removed and the cells washed twice with PBS. In darkness, 50 μl of secondary antibody (1:10,000 Hoechst and 1:1000 Alexa Fluor 488 anti rabbit in PBS 1% BSA 0.5% tween) was added and the plate left for at least 1 hour at room temperature. The secondary antibody was removed and the plate washed twice with PBS. 200 μl PBS was then added and left for 10 minutes with shaking. The PBS was removed. 100 μl PBS was added and the plate sealed prior to analysis. […]
The plate was analysed on a Cellomics Arrayscan using the Target Activation algorithm. […]

Structure (SMILES): CCN(CCCOc1ccc2c(Nc3cc(CC(=O)Nc4cccc(F)c4)[nH]n3)ncnc2c1)CCOP(=O)(O)O [aurora kinase inhibitor, 2-[[3-({4-[(5-{2-[(3-fluorophenyl)amino]-2-oxoethyl}-1H-pyrazol-3-yl)amino]-quinazolin-7-yl}oxy)propyl](ethyl)amino]ethyl dihydrogen phosphate]
- activity of aurora kinase inhibitor alone (inhibition of phH3) (100 nM): inactive
- Pgp mediated efflux of the compound (substrate of Pgp) (efflux inhibited by UIC2 mAb 10 μg/ml): Pgp mediated efflux
